Assay results as given in ChEMBL document CHEMBL3044672, “N9- and N7-(Chloromethyl Phenymethyl)Chloropurine Derivatives from , '-Dichloroxylenes: Synthesis and Anticancer Activity” (2005).

Legend:
Format in all cases: functional
[1] = test system: ACHN; assay: Cytotoxicity against Homo sapiens (human) ACHN cells after 48 hr by sulforhodamine B assay
[2] = test system: 786-0; assay: Cytotoxicity against Homo sapiens (human) 786-0 cells after 48 hr by sulforhodamine B assay; details: 786-0, 48 h
[3] = test system: SK-OV-3; assay: Cytotoxicity against Homo sapiens (human) SKOV3 cells after 48 hr by sulforhodamine B assay; details: SK-OV-3, 48 h
[4] = test system: OVCAR-5; assay: Cytotoxicity against Homo sapiens (human) OVCAR5 cells after 48 hr by sulforhodamine B assay; details: OVCAR-5, 48 h
[5] = test system: IGROV-1; assay: Cytotoxicity against Homo sapiens (human) IGROV1 cells after 48 hr by sulforhodamine B assay; details: IGROV-1, 48 h
[6] = test system: UACC-62; assay: Cytotoxicity against Homo sapiens (human) UACC62 cells after 48 hr by sulforhodamine B assay; details: UACC-62, 48 h
[7] = test system: UACC-257; assay: Cytotoxicity against Homo sapiens (human) UACC257 cells after 48 hr by sulforhodamine B assay; details: UACC-257, 48 h
[8] = test system: SK-MEL-5; assay: Cytotoxicity against Homo sapiens (human) SK-MEL-5 cells after 48 hr by sulforhodamine B assay; details: SK-MEL-5, 48 h
[9] = test system: SK-MEL-2; assay: Cytotoxicity against Homo sapiens (human) SK-MEL-2 cells after 48 hr by sulforhodamine B assay; details: SK-MEL-2, 48 h
[10] = test system: LOX IMVI; assay: Cytotoxicity against Homo sapiens (human) LOXIMVI cells after 48 hr by sulforhodamine B assay
[11] = test system: M14; assay: Cytotoxicity against Homo sapiens (human) M14 cells after 48 hr by sulforhodamine B assay; details: M14, 48 h
[12] = test system: SNB-19; assay: Cytotoxicity against Homo sapiens (human) SNB19 cells after 48 hr by sulforhodamine B assay; details: SNB-19, 48 h
[13] = test system: T47D; assay: Cytotoxicity against Homo sapiens (human) T47D cells after 48 hr by sulforhodamine B assay
[14] = test system: Hs-578T; assay: Cytotoxicity against Homo sapiens (human) Hs 578T cells after 48 hr by sulforhodamine B assay
[15] = Cytotoxicity against Homo sapiens (human) NCI-ADR-RES cells after 48 hr by sulforhodamine B assay
[16] = test system: MDA-MB-231; assay: Cytotoxicity against Homo sapiens (human) MDA-MB-231 cells after 48 hr by sulforhodamine B assay; details: MDA-MB-231, 48 h
[17] = test system: DU-145; assay: Cytotoxicity against Homo sapiens (human) DU145 cells after 48 hr by sulforhodamine B assay; details: DU-145, 48 h
[18] = test system: TK-10; assay: Cytotoxicity against Homo sapiens (human) TK10 cells after 48 hr by sulforhodamine B assay; details: TK-10, 48 h
[19] = test system: RXF 393; assay: Cytotoxicity against Homo sapiens (human) RXF393 cells after 48 hr by sulforhodamine B assay; details: RXF 393, 48 h
[20] = test system: CAKI-1; assay: Cytotoxicity against Homo sapiens (human) Caki1 cells after 48 hr by sulforhodamine B assay; details: CAKI-1, 48 h
[21] = test system: SF-295; assay: Cytotoxicity against Homo sapiens (human) SF295 cells after 48 hr by sulforhodamine B assay; details: SF-295, 48 h
[22] = test system: SF-268; assay: Cytotoxicity against Homo sapiens (human) SF268 cells after 48 hr by sulforhodamine B assay; details: SF-268, 48 h
[23] = test system: HCC 2998; assay: Cytotoxicity against Homo sapiens (human) HCC2998 cells after 48 hr by sulforhodamine B assay; details: HCC 2998, 48 h
[24] = test system: NCI-H460; assay: Cytotoxicity against Homo sapiens (human) NCI-H460 cells after 48 hr by sulforhodamine B assay; details: NCI-H460, 48 h
[25] = test system: NCI-H322M; assay: Cytotoxicity against Homo sapiens (human) NCI-H322M cells after 48 hr by sulforhodamine B assay
[26] = test system: NCI-H23; assay: Cytotoxicity against Homo sapiens (human) NCI-H23 cells after 48 hr by sulforhodamine B assay; details: NCI-H23, 48 h
[27] = test system: HOP-62; assay: Cytotoxicity against Homo sapiens (human) HOP62 cells after 48 hr by sulforhodamine B assay; details: HOP-62, 48 h
[28] = test system: HOP-92; assay: Cytotoxicity against Homo sapiens (human) HOP92 cells after 48 hr by sulforhodamine B assay; details: HOP-92, 48 h, read-out: LC50 (the source's name)
[29] = test system: EKVX; assay: Cytotoxicity against Homo sapiens (human) EKVX cells after 48 hr by sulforhodamine B assay
[30] = test system: A549; assay: Cytotoxicity against Homo sapiens (human) A549 cells after 48 hr by sulforhodamine B assay; details: A549, 48 h
[31] = test system: MOLT-4; assay: Cytotoxicity against Homo sapiens (human) MOLT4 cells after 48 hr by sulforhodamine B assay; details: MOLT-4, 48 h
[32] = test system: MCF7; assay: Cytotoxicity against Homo sapiens (human) MCF7 cells assessed as cell growth at 10^-4 M after 48 hr by Alamar blue assay; details: MCF7, 48 h, read-out: Activity
[33] = read-out: LC50 (the source's name)

Q: Which results are given for `ClCc1cccc(Cn2cnc3ncnc(Cl)c32)c1`?
A: GI50 [1]: 1.86 µM; TGI [1]: 3.54 µM; CC50 [1, 33]: 7.76 µM; GI50 [2]: 2.04 µM; LC50 [2]: 70.8 µM; TGI [2]: 4.07 µM; GI50 [3]: 10.7 µM; LC50 [3]: 8.12 µM; TGI [3]: 25.7 µM; GI50 [4]: 6.76 µM; TGI [4]: 19.9 µM; CC50 [4, 33]: > 100 µM; GI50 [5]: 3.38 µM; LC50 [5]: 5.88 µM; TGI [5]: 13.8 µM; GI50 [6]: 2.18 µM; LC50 (concentration causing 50% net cell kill) [6]: 38.9 µM; TGI [6]: 5.37 µM; GI50 [7]: 1.94 µM; LC50 (concentration killing 50% of cells) [7]: 18.6 µM; TGI [7]: 5.49 µM; GI50 [8]: 4.67 µM; LC50 [8]: 45.7 µM; TGI [8]: 18.2 µM; GI50 [9]: 5.75 µM; LC50 (concentration killing 50% of cells) [9]: 6.76 µM; TGI [9]: 22.9 µM; GI50 [10]: 3.09 µM; LC50 [10]: 43.6 µM; TGI [10]: 14.1 µM; GI50 [11]: 3.09 µM; LC50 [11]: 67.6 µM; TGI [11]: 14.5 µM; LC50 [12]: 6.76 µM; GI50 [13]: 0.21 µM; LC50 [13]: 2.88 µM; TGI [13]: 0.5 µM; GI50 [14]: 18.2 µM; LC50 [14]: 97.7 µM; TGI [14]: 42.6 µM; GI50 [15]: 2.75 µM; LC50 (concentration killing 50% of cells) [15]: 81 µM; TGI [15]: 9.77 µM; GI50 [16]: 1.73 µM; LC50 [16]: 6.76 µM; TGI [16]: 3.38 µM; GI50 [17]: 15.1 µM; TGI [17]: 30.9 µM; GI50 [18]: 1.77 µM; TGI [18]: 3.31 µM; CC50 [18, 33]: 6.3 µM; GI50 [19]: 2.04 µM; TGI [19]: 17.4 µM; CC50 [19, 33]: 47.9 µM; GI50 [20]: 2.13 µM; TGI [20]: 4.07 µM; CC50 [20, 33]: > 100 µM; GI50 [21]: 6.3 µM; TGI [21]: 19.1 µM; CC50 [21, 33]: 64.6 µM; GI50 [22]: 1.65 µM; TGI [22]: 3.46 µM; CC50 [22, 33]: 47.9 µM; GI50 [23]: 1.69 µM; TGI [23]: 3.23 µM; CC50 [23, 33]: 40.7 µM; GI50 [24]: 2.08 µM; TGI [24]: 4.46 µM; CC50 [24, 33]: 91.2 µM; GI50 [25]: 1.99 µM; TGI [25]: 3.46 µM; CC50 [25, 33]: 8.54 µM; GI50 [26]: 1.23 µM; TGI [26]: 3.38 µM; CC50 [26, 33]: 5.88 µM; GI50 [27]: 2.18 µM; TGI [27]: 3.98 µM; CC50 [27, 33]: 7.41 µM; CC50 [28]: 52.5 µM; GI50 [29]: 13.8 µM; TGI [29]: 29.5 µM; CC50 [29, 33]: 64.6 µM; GI50 [30]: 17.4 µM; TGI [30]: 39.8 µM; CC50 [30, 33]: 91.2 µM; GI50 [31]: 10.7 µM; TGI [31]: 29.5 µM; CC50 [31, 33]: 81.3 µM; growth at 100 µM [32]: 1%
